Experimental data reported in PubChem BioAssay AID330 (DTP/NCI, 2004).
Values joined by “and” are separate entries in the source; they are usually repeats but may differ in a detail not shown here. Equal values may be shown once. Toxic doses and inconclusive results are not listed.

Tested on: P388 leukemia ip, CD2F1 mice, survival T/C
Test: NCI In Vivo Anticancer Drug Screen. Data for tumor model P388 Leukemia (intraperitoneal) in CD2F1 (CDF1) mice
Settings: endpoint: median survival time, higher = longer survival
Procedure, shortened: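 Mice carrying the transplanted tumor received test compound or vehicle. Survival was recorded in each group, and the value is the treated-group measurement divided by that of the vehicle-treated control group.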

[1] = dose: 50.0 mg/kg/injection, schedule: Q01DX009 (ip), vehicle: saline with Tween-80
[2] = dose: 100.0 mg/kg/injection, schedule: Q01DX009 (ip), vehicle: saline with Tween-80
[3] = dose: 100.0 mg/kg/injection, schedule: Q04DX003 (ip), vehicle: saline with Tween-80
[4] = dose: 25.0 mg/kg/injection, schedule: Q01DX001 (ip), vehicle: saline with Tween-80
[5] = dose: 50.0 mg/kg/injection, schedule: Q01DX001 (ip), vehicle: saline with Tween-80
[6] = dose: 60.0 mg/kg/injection, schedule: Q01DX005 (ip), vehicle: saline with Tween-80
[7] = dose: 120.0 mg/kg/injection, schedule: Q01DX005 (ip), vehicle: saline with Tween-80
[8] = dose: 240.0 mg/kg/injection, schedule: Q01DX005 (ip), vehicle: saline with Tween-80

With `CS(=O)(=O)OCCN(CCOS(C)(=O)=O)c1ccc(/C=N/Nc2ncnc3nc[nH]c23)cc1` the T/C [1] was 172 % of control, the T/C (dose: 66.0 mg/kg/injection, schedule: Q04DX003 (ip), vehicle: saline with Tween-80) was 177 % of control and the T/C [2] was 181 % of control. For the same compound, the T/C [3] was 177 % of control and the T/C (dose: 150.0 mg/kg/injection, schedule: Q04DX003 (ip), vehicle: saline with Tween-80) was 195 % of control.

In the case of `CCN(CC)Cc1cc(C)c(O)c(N=Nc2ccc([N+](=O)[O-])c(OC)c2)c1C`, the T/C [3] is reported as 92 % of control, the T/C (dose: 200.0 mg/kg/injection, schedule: Q04DX003 (ip), vehicle: saline with Tween-80) is reported as 99 % of control and the T/C (dose: 400.0 mg/kg/injection, schedule: Q04DX003 (ip), vehicle: saline with Tween-80) is reported as 119 % of control.

With `COc1nc(C(O)C2OC(C)(C)OCC2O)[nH]c1C#N` (configuration not stated) the T/C (dose: 50.0 mg/kg/injection, schedule: Q01DX009 (ip), vehicle: Klucel (hydroxypropylcellulose) (HPC)) was 106 % of control, the T/C (dose: 100.0 mg/kg/injection, schedule: Q01DX009 (ip), vehicle: Klucel (hydroxypropylcellulose) (HPC)) was 102 % of control and 91 % of control and the T/C (dose: 200.0 mg/kg/injection, schedule: Q01DX009 (ip), vehicle: Klucel (hydroxypropylcellulose) (HPC)) was 103 % of control and 110 % of control.

`Cc1cc2nc(CN(CCN(Cc3nc4cc(C)c(C)cc4[nH]3)Cc3nc4cc(C)c(C)cc4[nH]3)Cc3nc4cc(C)c(C)cc4[nH]3)[nH]c2cc1C` was tested, and the T/C (dose: 12.5 mg/kg/injection, schedule: Q01DX001 (ip), vehicle: saline with Tween-80) was 106 % of control, the T/C [4] was 116 % of control and the T/C [5] was 116 % of control.

With `CC(C)(C)N1COc2cc3c(cc2C1)OCN(C(C)(C)C)C3` the T/C (dose: 12.5 mg/kg/injection, schedule: Q01DX009 (ip), vehicle: saline with Tween-80) was 110 % of control, the T/C (dose: 25.0 mg/kg/injection, schedule: Q01DX009 (ip), vehicle: saline with Tween-80) was 99 % of control and the T/C [1] was 108 % of control. The T/C [2] was 119 % of control.

In the case of `O=C(NC(=O)C(F)(F)F)Nc1ccc(F)c(Cl)c1`, the T/C [1] is reported as 96 % of control, the T/C [2] is reported as 105 % of control and the T/C (dose: 200.0 mg/kg/injection, schedule: Q01DX009 (ip), vehicle: saline with Tween-80) is reported as 104 % of control.

With `NC(Cc1c[nH]c2ccccc12)C(=O)NCCS(=O)(=O)O` (configuration not stated) the T/C [6] was 102 % of control, the T/C [7] was 104 % of control and the T/C [8] was 99 % of control.

For `C[As](C)SC1CCC2(C)C(=CCC3C4CCC(=O)C4(C)CCC32)C1` (configuration not stated), the T/C (dose: 12.5 mg/kg/injection, schedule: Q01DX009 (ip), vehicle: distilled water + Tween-80) was 92 % of control, the T/C (dose: 25.0 mg/kg/injection, schedule: Q01DX009 (ip), vehicle: distilled water + Tween-80) was 89 % of control and 96 % of control and the T/C (dose: 50.0 mg/kg/injection, schedule: Q01DX009 (ip), vehicle: distilled water + Tween-80) was 107 % of control and 97 % of control. For the same compound, the T/C (dose: 100.0 mg/kg/injection, schedule: Q01DX009 (ip), vehicle: distilled water + Tween-80) was 119 % of control and 121 % of control and the T/C (dose: 200.0 mg/kg/injection, schedule: Q01DX009 (ip), vehicle: distilled water + Tween-80) was 107 % of control and 90 % of control.

For `Cc1cnc(Sc2ncccn2)c(C(=O)O)c1[N+](=O)[O-]`, the T/C (dose: 50.0 mg/kg/injection, schedule: Q01DX005 (ip), vehicle: Klucel (hydroxypropylcellulose) (HPC)) was 101 % of control, the T/C (dose: 100.0 mg/kg/injection, schedule: Q01DX005 (ip), vehicle: Klucel (hydroxypropylcellulose) (HPC)) was 99 % of control and the T/C (dose: 200.0 mg/kg/injection, schedule: Q01DX005 (ip), vehicle: Klucel (hydroxypropylcellulose) (HPC)) was 100 % of control.

For `C=C(C)C(O)CCCO[Si](c1ccccc1)(c1ccccc1)C(C)(C)C` (configuration not stated), the T/C [6] was 94 % of control, the T/C [7] was 95 % of control and the T/C [8] was 97 % of control.

With `COCOc1cc(OCc2ccccc2)ccc1C(=O)/C=C/c1cc2c(cc1OCc1ccccc1)OCO2` the T/C (dose: 100.0 mg/kg/injection, schedule: Q01DX001 (ip), vehicle: Klucel (hydroxypropylcellulose) (HPC)) was 105 % of control, the T/C (dose: 200.0 mg/kg/injection, schedule: Q01DX001 (ip), vehicle: Klucel (hydroxypropylcellulose) (HPC)) was 102 % of control and the T/C (dose: 400.0 mg/kg/injection, schedule: Q01DX001 (ip), vehicle: Klucel (hydroxypropylcellulose) (HPC)) was 105 % of control.

For `CC(C)(C)S(=O)(=O)C(C)(C)C`, the T/C [4] was 109 % of control, the T/C [5] was 111 % of control and the T/C (dose: 100.0 mg/kg/injection, schedule: Q01DX001 (ip), vehicle: saline with Tween-80) was 95 % of control. For the same compound, the T/C (dose: 200.0 mg/kg/injection, schedule: Q01DX001 (ip), vehicle: saline with Tween-80) was 100 % of control.
